Target: Human Factor D (Homo sapiens (Human), UniProt P00746)
Assay: Human Factor D Assay
Format: biochemical
Conditions: Human Factor D 80 nM, substrate Z-L-Lys-SBzl, DTNB, A405; read-out: IC50 (Stars)
Outline: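 Serum-purified enzyme (80 nM final) was preincubated with compound 5 min at room temperature in 50 mM Tris, 1M NaCl, pH 7.5. Z-L-Lys-SBzl and DTNB ([…] each, final) were added and A405 followed every 30 s for 30 min; IC50 from nonlinear regression of reaction rates.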

Chain of Human Factor D (P00746 26-253): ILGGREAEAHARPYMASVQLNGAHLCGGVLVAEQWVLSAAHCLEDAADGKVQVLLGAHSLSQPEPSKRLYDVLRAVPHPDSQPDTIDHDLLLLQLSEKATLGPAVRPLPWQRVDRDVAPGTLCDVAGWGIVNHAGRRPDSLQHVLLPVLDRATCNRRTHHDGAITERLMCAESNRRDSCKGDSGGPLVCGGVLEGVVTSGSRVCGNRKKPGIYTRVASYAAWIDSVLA

Structure (SMILES) | IC50 [nM]
CC(=O)c1nn2c3c(cc(-c4cnc(C)nc4)cc13)CCCCCCC(=O)NC[C@@]13C[C@@H](C(=O)NCC(F)=C(C)C)N(C(=O)C2)[C@@H]1C3 [Compound T-198] | < 1000
CCCCNC(=O)[C@@H]1C[C@]23CNC(=O)CCCCCCc4cc(-c5cnc(C)nc5)cc5c(C(C)=O)nn(c45)CC(=O)N1[C@@H]2C3 [Compound T-199] | < 1000
CCCCCNC(=O)[C@@H]1C[C@]23CNC(=O)CCCCCCc4cc(-c5cnc(C)nc5)cc5c(C(C)=O)nn(c45)CC(=O)N1[C@@H]2C3 [Compound T-200] | < 1000
CC(=O)c1nn2c3c(cc(-c4cnc(C)nc4)cc13)CCCCCCC(=O)NC[C@@]13C[C@@H](C(=O)NCC(C)(C)C)N(C(=O)C2)[C@@H]1C3 [Compound T-201] | < 1000
CC(=O)c1nn2c3c(cc(-c4cnc(C)nc4)cc13)CCCCCCC(=O)N(C)C[C@@]13C[C@@H](C(=O)Nc4ccn(CC(F)(F)F)n4)N(C(=O)C2)[C@@H]1C3 [Compound T-203] | < 1000
CC(=O)c1nn2c3c(cc(-c4cnc(C)nc4)cc13)CC=CCCCC(=O)N(C)C[C@@]13C[C@@H](C(=O)Nc4ccn(CC(F)(F)F)n4)N(C(=O)C2)[C@@H]1C3 [Compound T-204] | < 1000
CC(=O)c1nn2c3c(cc(-c4cnc(C)nc4)cc13)CCCCC[C@@H](C)C(=O)N(C)C[C@@]13C[C@@H](C(=O)Nc4nc(C(F)(F)F)ccc4C)N(C(=O)C2)[C@@H]1C3 [Compound T-205] | < 1000
CC(=O)c1nn2c3c(cc(-c4cnc(C)nc4)cc13)CCCCCCC(=O)NC[C@@]13C[C@@H](C(=O)N[C@@H](C)COC(F)(F)F)N(C(=O)C2)[C@@H]1C3 [Compound T-206] | < 1000
CC(=O)c1nn2c3c(cc(-c4cnc(C)nc4)cc13)CCCCCCC(=O)NC[C@@]13C[C@@H](C(=O)N[C@H](C)COC(F)(F)F)N(C(=O)C2)[C@@H]1C3 [Compound T-207] | < 1000
CC(=O)c1nn2c3c(cc(-c4cnc(C)nc4)cc13)CCCCCCC(=O)NC[C@@]13C[C@@H](C(=O)NCCOC(F)(F)F)N(C(=O)C2)[C@@H]1C3 [Compound T-208] | < 1000
COc1cc(Br)nc(NC(=O)[C@@H]2C[C@]34CNC(=O)CCCC=CCc5cc(-c6cnc(C)nc6)cc6c(C(C)=O)nn(c56)CC(=O)N2[C@@H]3C4)c1 [Compound T-209] | < 1000
COc1cc(Br)nc(NC(=O)[C@@H]2C[C@]34CNC(=O)CCCCCCc5cc(-c6cnc(C)nc6)cc6c(C(C)=O)nn(c56)CC(=O)N2[C@@H]3C4)c1 [Compound T-210] | < 1000
CC(=O)c1nn2c3c(cc(-c4cnc(C)nc4)cc13)CC=CCCCC(=O)NC[C@@]13C[C@@H](C(=O)Nc4nc(Br)ccc4C4CC4)N(C(=O)C2)[C@@H]1C3 [Compound T-211] | < 1000
CC(=O)c1nn2c3c(cc(-c4cnc(C)nc4)cc13)CCCCCCC(=O)NC[C@@]13C[C@@H](C(=O)Nc4nc(Br)ccc4C4CC4)N(C(=O)C2)[C@@H]1C3 [Compound T-212] | < 1000
CC(=O)c1nn2c3c(cc(-c4cnc(C)nc4)cc13)CCCCCCC(=O)NC[C@@]13C[C@@H](C(=O)Nc4ccc(F)c(Br)n4)N(C(=O)C2)[C@@H]1C3 [Compound T-213] | < 1000
CC(=O)c1nn2c3c(cc(-c4cnc(C)nc4)cc13)CC=CCCCC(=O)NC[C@@]13C[C@@H](C(=O)Nc4ccc(F)c(Br)n4)N(C(=O)C2)[C@@H]1C3 [Compound T-214] | < 1000
CC(=O)c1nn2c3c(cc(-c4cnc(C)nc4)cc13)CC=CCCCC(=O)NC[C@@]13C[C@@H](C(=O)Nc4cc(C)c(F)c(Br)n4)N(C(=O)C2)[C@@H]1C3 [Compound T-217] | < 1000
CC(=O)c1nn2c3c(cc(-c4cnc(C)nc4)cc13)CCCCCCC(=O)NC[C@@]13C[C@@H](C(=O)Nc4cc(C)c(F)c(Br)n4)N(C(=O)C2)[C@@H]1C3 [Compound T-218] | < 1000
CC(=O)c1nn2c3c(cc(-c4cnc(C)nc4)cc13)CC=CCCCC(=O)NC[C@@]13C[C@@H](C(=O)Nc4nc(C(F)(F)F)ccc4C)N(C(=O)C2)[C@@H]1C3 [Compound T-219] | < 1000
CC(=O)c1nn2c3c(cc(-c4cnc(C)nc4)cc13)CCCCCCC(=O)NC[C@@]13C[C@@H](C(=O)Nc4nc(C(F)(F)F)ccc4C)N(C(=O)C2)[C@@H]1C3 [Compound T-220] | < 1000
CC(=O)c1nn2c3c(cc(-c4cnc(C)nc4)cc13)CCCCCCC(=O)NC[C@@]13C[C@@H](C(=O)Nc4nc(C#N)ccc4C)N(C(=O)C2)[C@@H]1C3 [Compound T-221] | < 1000
CC(=O)c1nn2c3c(cc(-c4cnc(C)nc4)cc13)CCCCCCC(=O)NC[C@@]13C[C@@H](C(=O)Nc4cccc(-c5cc(F)c(F)cc5Cl)c4F)N(C(=O)C2)[C@@H]1C3 [Compound T-222] | < 1000
CC(=O)c1nn2c3c(cc(-c4cnc(C)nc4)cc13)CCCCCCC(=O)NC[C@@]13C[C@@H](C(=O)Nc4cccc(OC(F)(F)F)c4F)N(C(=O)C2)[C@@H]1C3 [Compound T-223] | < 1000
CC(=O)c1nn(CC(=O)N2[C@H]3C[C@@]4(CNC(=O)C(C)(C)C=CCOCc5ccc(C(F)(F)F)nc5NC3=O)C[C@@H]24)c2cnc(-c3cnc(C)nc3)cc12 [Compound T-224] | < 1000

Structure (SMILES) | IC50 [nM]
CC(=O)c1nn(CC(=O)N2[C@H]3C[C@@]4(CNC(=O)C(C)(C)CCCOCc5ccc(C(F)(F)F)nc5NC3=O)C[C@@H]24)c2cnc(-c3cnc(C)nc3)cc12 [Compound T-225] | < 1000
CC(=O)c1nn2c3c(cc(-c4cnc(C)nc4)cc13)CCCCCCC(=O)NC[C@@]13C[C@@H](C(=O)N[C@@H](C)CC(C)(C)C)N(C(=O)C2)[C@@H]1C3 [Compound T-226] | < 1000
CC(=O)c1nn2c3c(cc(-c4cnc(C)nc4)cc13)CCCCCCC(=O)NC[C@@]13CC(C(=O)N[C@H](C)c4cccc(Cl)c4F)N(C(=O)C2)[C@@H]1C3 (some centres unmarked) [Compound T-227] | < 1000
COc1cc(NC(=O)[C@@H]2C[C@]34CNC(=O)CCCCCCc5cc(-c6cnc(C)nc6)cc6c(C(C)=O)nn(c56)CC(=O)N2[C@@H]3C4)nc(Br)c1F [Compound T-228] | < 1000
COc1cc(NC(=O)[C@@H]2C[C@]34CNC(=O)CCCC=CCc5cc(-c6cnc(C)nc6)cc6c(C(C)=O)nn(c56)CC(=O)N2[C@@H]3C4)nc(Br)c1F [Compound T-229] | < 1000
CC(=O)c1nn2c3c(cc(-c4cnc(C)nc4)cc13)CCCCCCC(=O)NC[C@@]13C[C@@H](C(=O)Nc4cc(Br)ccc4F)N(C(=O)C2)[C@@H]1C3 [Compound T-230] | < 1000
CC(=O)c1nn2c3c(cc(-c4cnc(C)nc4)cc13)CCCCCCC(=O)NC[C@@]13C[C@@H](C(=O)N[C@H](C)CC(C)(C)C)N(C(=O)C2)[C@@H]1C3 [Compound T-231] | < 1000
CC(=O)c1nn2c3c(cc(-c4cnc(C)nc4)cc13)CCCCCCC(=O)NC[C@@]13C[C@@H](C(=O)N[C@@H](C)c4cccc(Cl)c4F)N(C(=O)C2)[C@@H]1C3 [Compound T-232] | < 1000
CC(=O)c1nn2c3c(cc(-c4cnc(C)nc4)cc13)CC=CCCCC(=O)NC[C@@]13C[C@@H](C(=O)Nc4cncc(Br)n4)N(C(=O)C2)[C@@H]1C3 [Compound T-233] | < 1000
CC(=O)c1nn2c3c(cc(-c4cnc(C)nc4)cc13)CCCCCCC(=O)NC[C@@]13C[C@@H](C(=O)Nc4cncc(Br)n4)N(C(=O)C2)[C@@H]1C3 [Compound T-234] | < 1000
CC(=O)c1nn(CC(=O)N2[C@H]3C[C@@]4(CNC(=O)C(C)(C)C=CCOCc5ccc(C(F)(F)F)nc5NC3=O)C[C@@H]24)c2ccc(-c3cnc(C)nc3)cc12 [Compound T-235] | < 1000
CC(=O)c1nn(CC(=O)N2[C@H]3C[C@@]4(CNC(=O)C(C)(C)CCCOCc5ccc(C(F)(F)F)nc5NC3=O)C[C@@H]24)c2ccc(-c3cnc(C)nc3)cc12 [Compound T-236] | < 1000
CC(=O)c1nn2c3c(cc(-c4cnc(C)nc4)cc13)CCCCNC(=O)NC[C@@]13C[C@@H](C(=O)Nc4nc(C(F)(F)F)ccc4C)N(C(=O)C2)[C@@H]1C3 [Compound T-237] | < 1000
CC(=O)c1nn2c3c(cc(-c4cnc(C)nc4)cc13)CCCCCNC(=O)NC[C@@]13C[C@@H](C(=O)Nc4nc(C(F)(F)F)ccc4C)N(C(=O)C2)[C@@H]1C3 [Compound T-238] | < 1000
CC(=O)c1nn(CC(=O)N2C[C@@]3(F)COCCCCCCCCc4ccc(Br)nc4NC(=O)[C@@H]2C3)c2cnc(-c3cnc(C)nc3)cc12 [Compound T-239] | < 1000
COCc1ccc(Br)nc1NC(=O)[C@@H]1C[C@]23CNC(=O)CCCC=CCc4cc(-c5cnc(C)nc5)cc5c(C(C)=O)nn(c45)CC(=O)N1[C@@H]2C3 [Compound T-240] | < 1000
COCc1ccc(Br)nc1NC(=O)[C@@H]1C[C@]23CNC(=O)CCCCCCc4cc(-c5cnc(C)nc5)cc5c(C(C)=O)nn(c45)CC(=O)N1[C@@H]2C3 [Compound T-241] | < 1000
CC(=O)c1nn2c3c(cc(-c4cnc(C5CC5)nc4)cc13)CCCCCCC(=O)NC[C@@]13C[C@@H](C(=O)Nc4nc(C(F)(F)F)ccc4C)N(C(=O)C2)[C@@H]1C3 [Compound T-242] | < 1000
CC(=O)c1nn2c3c(cc(-c4cnc(C)nc4)cc13)CC=CCC[C@H](C)C(=O)N(C)C[C@@]13C[C@@H](C(=O)Nc4nc(C(F)(F)F)ccc4C)N(C(=O)C2)[C@@H]1C3 [Compound T-243] | < 1000
CC(=O)c1nn2c3c(cc(-c4cnc(C)nc4)cc13)CCCCC[C@H](C)C(=O)N(C)C[C@@]13C[C@@H](C(=O)Nc4nc(C(F)(F)F)ccc4C)N(C(=O)C2)[C@@H]1C3 [Compound T-244] | < 1000
CC(=O)c1nn2c3c(cc(-c4cnc5ccnn5c4)cc13)CCCCCCC(=O)NC[C@@]13C[C@@H](C(=O)Nc4nc(C(F)(F)F)ccc4C)N(C(=O)C2)[C@@H]1C3 [Compound T-255] | < 1000
CC(=O)c1nn2c3c(cc(-c4cnc5cc(C)nn5c4)cc13)CCCCCCC(=O)NC[C@@]13C[C@@H](C(=O)Nc4nc(C(F)(F)F)ccc4C)N(C(=O)C2)[C@@H]1C3 [Compound T-256] | < 1000
CC(=O)c1nn2c3c(cc(-c4ccc5nc(C)nn5c4)cc13)CCCCCCC(=O)NC[C@@]13C[C@@H](C(=O)Nc4nc(C(F)(F)F)ccc4C)N(C(=O)C2)[C@@H]1C3 [Compound T-257] | < 1000

Source: patent US11053253B2, “Macrocyclic compounds for treatment of medical disorders” (Achillion Pharmaceuticals, Inc., priority 2017, dated 2021)
